Assays:
[1] = tested on: Namalwa cell line (lymphoma); assay: Cytotoxic activity: inhibition of cell proliferation, residual ATP by luminescence (ATPLite); type: cell-based; details: Homo sapiens, 72 hours of incubation
Protocol: (§1) Cytotoxic activity of the compounds prepared according to the invention was evaluated by measuring inhibition of cell proliferation of tumoral cell lines of human origin, such as the A549 cell line (lung) and the Namalwa cell line (lymphoma). This activity is expressed by IC50, the concentration of the tested product capable of inhibiting cell proliferation by 50%. The method used is a measurement of residual ATP by luminescence after 72 hours of incubation by using the “ATPLite” kit marketed by Perkin Elmer.

[2] = tested on: A549 cell line (lung); assay: as above; type: cell-based; details: Homo sapiens, 72 hours of incubation
Protocol: as §1

| SMILES | IC50 [1] | IC50 [2] |
| --- | --- | --- |
| C[C@@H]1CC[C@H]2C(CSCC3=C(C(F)(F)F)O[C@@H]4O[C@@]5(C)CCC6[C@H](C)CC[C@@H]3[C@]64OO5)=C(C(F)(F)F)O[C@@H]3OC4(C)CCC1[C@]32OO4 (stereo partly shown) [Compound 1] | 290 nM | 200 nM |
| C[C@@H]1CC[C@H]2C(C[S+]([O-])CC3=C(C(F)(F)F)O[C@@H]4O[C@@]5(C)CCC6[C@H](C)CC[C@@H]3[C@]64OO5)=C(C(F)(F)F)O[C@@H]3OC4(C)CCC1[C@]32OO4 (stereo partly shown) [Compound 2] | 1000 nM | 850 nM |
| C[C@@H]1CC[C@H]2C(CS(=O)(=O)CC3=C(C(F)(F)F)O[C@@H]4O[C@@]5(C)CCC6[C@H](C)CC[C@@H]3[C@]64OO5)=C(C(F)(F)F)O[C@@H]3OC4(C)CCC1[C@]32OO4 (stereo partly shown) [Compound 3] | 2300 nM | 1200 nM |
| C[C@@H]1CC[C@H]2C(CSSCC3=C(C(F)(F)F)O[C@@H]4O[C@@]5(C)CCC6[C@H](C)CC[C@@H]3[C@]64OO5)=C(C(F)(F)F)O[C@@H]3OC4(C)CCC1[C@]32OO4 (stereo partly shown) [Compound 4] | 64 nM | 84 nM |
| C[C@@H]1CC[C@H]2C(COCCSSCCOCC3=C(C(F)(F)F)O[C@@H]4O[C@@]5(C)CCC6[C@H](C)CC[C@@H]3[C@]64OO5)=C(C(F)(F)F)O[C@@H]3OC4(C)CCC1[C@]32OO4 (stereo partly shown) [Compound 5] | 50 nM | 90 nM |
| C[C@@H]1CC[C@H]2C(CSCCSCC3=C(C(F)(F)F)O[C@@H]4O[C@@]5(C)CCC6[C@H](C)CC[C@@H]3[C@]64OO5)=C(C(F)(F)F)O[C@@H]3OC4(C)CCC1[C@]32OO4 (stereo partly shown) [Compound 6] | 27 nM | 63 nM |
| C[C@@H]1CC[C@H]2C(CSCCCSCC3=C(C(F)(F)F)O[C@@H]4O[C@@]5(C)CCC6[C@H](C)CC[C@@H]3[C@]64OO5)=C(C(F)(F)F)O[C@@H]3OC4(C)CCC1[C@]32OO4 (stereo partly shown) [Compound 7] | 100 nM | 150 nM |
| C[C@@H]1CC[C@H]2C(CSCCCCSCC3=C(C(F)(F)F)O[C@@H]4O[C@@]5(C)CCC6[C@H](C)CC[C@@H]3[C@]64OO5)=C(C(F)(F)F)O[C@@H]3OC4(C)CCC1[C@]32OO4 (stereo partly shown) [Compound 8] | 64 nM | 270 nM |
| C[C@@H]1CC[C@H]2C(COCCSCC3=C(C(F)(F)F)O[C@@H]4O[C@@]5(C)CCC6[C@H](C)CC[C@@H]3[C@]64OO5)=C(C(F)(F)F)O[C@@H]3OC4(C)CCC1[C@]32OO4 (stereo partly shown) [Compound 9] | 24 nM | 31 nM |
| C[C@@H]1CC[C@H]2C(CN(C)CCN(C)CC3=C(C(F)(F)F)O[C@@H]4O[C@@]5(C)CCC6[C@H](C)CC[C@@H]3[C@]64OO5)=C(C(F)(F)F)O[C@@H]3OC4(C)CCC1[C@]32OO4 (stereo partly shown) [Compound 11] | 790 nM | 1100 nM |
| C[C@@H]1CC[C@H]2C(CN(C)CCCN(C)CC3=C(C(F)(F)F)O[C@@H]4O[C@@]5(C)CCC6[C@H](C)CC[C@@H]3[C@]64OO5)=C(C(F)(F)F)O[C@@H]3OC4(C)CCC1[C@]32OO4 (stereo partly shown) [Compound 12] | 390 nM | 690 nM |
| C[C@@H]1CC[C@H]2C(COC(=O)c3cccc(C(=O)OCC4=C(C(F)(F)F)O[C@@H]5O[C@@]6(C)CC[C@H]7[C@H](C)CC[C@@H]4[C@@]57OO6)n3)=C(C(F)(F)F)O[C@@H]3O[C@@]4(C)CC[C@@H]1[C@]32OO4 [Compound 25] | 62 nM | 140 nM |
| C[C@@H]1CC[C@H]2C(COC(=O)c3cccc(C(=O)OCC4=C(C(F)(F)F)O[C@@H]5O[C@@]6(C)CC[C@H]7[C@H](C)CC[C@@H]4[C@@]57OO6)c3)=C(C(F)(F)F)O[C@@H]3O[C@@]4(C)CC[C@@H]1[C@]32OO4 [Compound 26] | 54 nM | 71 nM |
| C[C@@H]1CC[C@H]2C(COC(=O)c3ccc(C(=O)OCC4=C(C(F)(F)F)O[C@@H]5O[C@@]6(C)CC[C@H]7[C@H](C)CC[C@@H]4[C@@]57OO6)s3)=C(C(F)(F)F)O[C@@H]3O[C@@]4(C)CC[C@@H]1[C@]32OO4 [Compound 27] | 130 nM | 210 nM |
| C[C@@H]1CC[C@H]2C(CNC(=O)c3cccc(C(=O)NCC4=C(C(F)(F)F)O[C@@H]5O[C@@]6(C)CC[C@H]7[C@H](C)CC[C@@H]4[C@@]57OO6)n3)=C(C(F)(F)F)O[C@@H]3O[C@@]4(C)CC[C@@H]1[C@]32OO4 [Compound 30] | 72 nM | 170 nM |
| C[C@@H]1CC[C@H]2C(CNC(=O)c3ccc(C(=O)NCC4=C(C(F)(F)F)O[C@@H]5O[C@@]6(C)CC[C@H]7[C@H](C)CC[C@@H]4[C@@]57OO6)s3)=C(C(F)(F)F)O[C@@H]3O[C@@]4(C)CC[C@@H]1[C@]32OO4 [Compound 31] | 88 nM | 220 nM |
| C[C@@H]1CC[C@H]2C(COCc3cnnn3CC3=C(C(F)(F)F)O[C@@H]4O[C@@]5(C)CC[C@@]6(C)[C@H](C)CC[C@@H]3[C@@]46OO5)=C(C(F)(F)F)O[C@@H]3O[C@@]4(C)CC[C@@H]1[C@]32OO4 [Compound 32] | 130 nM | 270 nM |
| C[C@@H]1CC[C@H]2C(COCc3cn(CC4=C(C(F)(F)F)O[C@@H]5O[C@]6(C)CC[C@H]7[C@H](C)CC[C@@H]4[C@@]57OO6)nn3)=C(C(F)(F)F)O[C@@H]3O[C@@]4(C)CC[C@@H]1[C@]32OO4 [Compound 33] | 30 nM | 110 nM |
| C[C@@H]1CC[C@H]2C(COCc3cccc(COCC4=C(C(F)(F)F)O[C@@H]5O[C@@]6(C)CC[C@H]7[C@H](C)CC[C@@H]4[C@@]57OO6)n3)=C(C(F)(F)F)O[C@@H]3O[C@@]4(C)CC[C@@H]1[C@]32OO4 [Compound 37] | 30 nM | 74 nM |
| C[C@@H]1CC[C@H]2C(COCC#CC(O)C3=C(C(F)(F)F)O[C@@H]4O[C@@]5(C)CC[C@H]6[C@H](C)CC[C@@H]3[C@@]46OO5)=C(C(F)(F)F)O[C@@H]3O[C@@]4(C)CC[C@@H]1[C@]32OO4 (stereo partly shown) [Compound 39] | 160 nM | 240 nM |

From patent US8236850B2, “Dimeric derivatives of artemisinin and application in anticancer therapy” (Pierre Fabre Medicament, priority 2007, dated 2012)
